Results taken from US8501750B2, “Heterocyclic compound and use thereof” (Takeda Pharmaceutical Company Limited, priority 2007, dated 2013).
Where a name gives a salt, the structure may show the parent alone. Read-outs that look alike come from different tables or passages of the source.

Legend:
AT1 receptor = AT1 receptor (Homo sapiens (Human), UniProt P30556); test: AT1 receptor binding inhibitory action
PPARγ = PPARγ (Homo sapiens (Human), UniProt P37231); test: PPARγ activating action (luciferase reporter in PPARγ:RXRα:4ERPP/CHO-K1 cells); format: cell-based; details: CHO-K1, 24 h, read-out: PPARγ activating action (activation % (1 μM))
Method: Then the medium was removed from the 96-well half area white plate, 45 μl of Ham's F12 medium containing 0.1% fatty acid-free bovine serum albumin (BSA) and 5 μl of test compound were added, and the cells were cultured in a CO2 gas incubator at 37° C. for 1 day. The medium was removed and 20 μl of PicaGene 7.5 [manufactured by Dainippon Ink and Chemicals Corporation, Japan] diluted 2-fold with HBSS (HANKS' BALANCED SALT SOLUTION) [manufactured by BIO WHITTAKER, USA] was added. After stirring, the luciferase activity was determined using 1420 ARVO Multilabel Counter [manufactured by PerkinElmer, USA]. […] A CHO-K1 cell cultured in a 150 cm^2 cell culture flask [manufactured by Corning Costar Corporation, USA] containing Ham's F12 medium [manufactured by INVITROGEN, USA] supplemented with 10% fetal bovine serum [manufactured by INVITROGEN, USA] was scraped by treating with 0.5 g/L trypsin-0.2 g/L EDTA (ethylenediaminetetraacetic acid) [manufactured by Life Technologies, Inc., USA], and then the cell was washed with PBS (Phosphate-buffered saline) [manufactured by INVITROGEN, USA], centrifuged (1000 rpm, 5 minutes) and suspended in PBS. Subsequently, DNA was introduced into the cell under the conditions shown below using GENE PULSER [manufactured by Bio-Rad Laboratories, USA]. […] Subsequently, the cell was transferred into a F12 medium containing 10% fetal bovine serum and cultured for 24 hours, and then the cell was scraped again and centrifuged, and then suspended in Ham's F12 medium containing 10% fetal bovine serum supplemented with 500 μg/ml of Geneticin [manufactured by INVITROGEN, USA] and 250 μg/ml of Zeocin [manufactured by INVITROGEN, USA]. The obtained suspension was diluted to the density of 10^4 cells/ml and inoculated in a 96-well plate [manufactured by Corning Costar Corporation, USA], which was cultured in a CO2 gas incubator at 37° C., whereby obtaining a Geneticin- and Zeocin-resistant transformant.

[1] = test compound 1 μM, luciferase activity relative to control compound X (1 μM) = 100%, non-administration group = 0%

AT1 receptor, sequence (P30556 whole entry): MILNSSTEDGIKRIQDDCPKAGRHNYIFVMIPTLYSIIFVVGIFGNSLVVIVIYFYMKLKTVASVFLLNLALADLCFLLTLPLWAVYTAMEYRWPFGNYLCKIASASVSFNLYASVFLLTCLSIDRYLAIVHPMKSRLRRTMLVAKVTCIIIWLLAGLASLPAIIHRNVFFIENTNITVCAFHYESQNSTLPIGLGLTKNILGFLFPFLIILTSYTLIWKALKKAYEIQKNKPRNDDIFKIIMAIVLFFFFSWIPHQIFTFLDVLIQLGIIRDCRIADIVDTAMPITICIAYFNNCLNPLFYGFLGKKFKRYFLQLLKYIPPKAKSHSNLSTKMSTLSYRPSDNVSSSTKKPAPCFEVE
PPARγ, sequence (P37231 29-505): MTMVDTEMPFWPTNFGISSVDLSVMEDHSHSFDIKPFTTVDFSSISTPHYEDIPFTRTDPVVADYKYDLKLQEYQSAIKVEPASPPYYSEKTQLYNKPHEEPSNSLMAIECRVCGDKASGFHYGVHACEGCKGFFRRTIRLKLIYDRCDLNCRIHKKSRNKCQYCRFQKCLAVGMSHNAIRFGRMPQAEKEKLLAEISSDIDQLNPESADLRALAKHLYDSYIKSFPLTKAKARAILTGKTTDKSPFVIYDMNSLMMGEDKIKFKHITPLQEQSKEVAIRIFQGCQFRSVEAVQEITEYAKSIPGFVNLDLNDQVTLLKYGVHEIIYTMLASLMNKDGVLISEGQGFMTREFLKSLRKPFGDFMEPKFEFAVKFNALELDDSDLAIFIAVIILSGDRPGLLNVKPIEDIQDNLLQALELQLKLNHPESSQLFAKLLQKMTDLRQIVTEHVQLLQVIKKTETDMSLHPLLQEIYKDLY
PPARγ, sequence (P19793 whole entry partner): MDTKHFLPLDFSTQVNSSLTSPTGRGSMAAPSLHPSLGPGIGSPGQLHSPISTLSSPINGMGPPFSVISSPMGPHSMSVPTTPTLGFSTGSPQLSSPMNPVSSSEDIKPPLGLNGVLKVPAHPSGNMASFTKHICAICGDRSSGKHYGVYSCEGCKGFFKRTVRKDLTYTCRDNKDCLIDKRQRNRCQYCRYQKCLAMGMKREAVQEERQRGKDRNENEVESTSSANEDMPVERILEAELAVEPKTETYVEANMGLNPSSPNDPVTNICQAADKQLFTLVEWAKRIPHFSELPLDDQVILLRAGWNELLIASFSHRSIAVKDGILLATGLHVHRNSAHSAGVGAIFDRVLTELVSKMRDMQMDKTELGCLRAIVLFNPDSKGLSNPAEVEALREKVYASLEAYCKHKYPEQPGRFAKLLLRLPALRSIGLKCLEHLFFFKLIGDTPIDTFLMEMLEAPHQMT

SMILES	IC50 (AT1 receptor) [nM]	activation at 1 µM (PPARγ; [1]) [%]	activation at 1 µM (PPARγ) [%]
COc1cccc(C(=O)Cn2c(=O)c3cc(C4CC4)sc3n(Cc3ccc(-c4ccccc4-c4noc(O)n4)cc3)c2=O)c1 [Ex. 107, 6-cyclopropyl-3-[2-(3-methoxyphenyl)-2-oxoethyl]-1-{[2′-(5-oxo-4,5-dihydro-1,2,4-oxadiazol-3-yl)biphenyl-4-yl]methyl}thieno[2,3-d]pyrimidine-2,4(1H,3H)-dione potassium salt]	1.1	–	43
CCc1cc2c(=O)n(CC(=O)c3ccccc3OC)c(=O)n(Cc3ccc(-c4ccccc4-c4noc(O)n4)cc3)c2s1 [Ex. 109, 6-ethyl-3-[2-(2-methoxyphenyl)-2-oxoethyl]-1-{[2′-(5-oxo-4,5-dihydro-1,2,4-oxadiazol-3-yl)biphenyl-4-yl]methyl}thieno[2,3-d]pyrimidine-2,4(1H,3H)-dione potassium salt]	1.4	–	64
CCc1cc2c(=O)n(CC(=O)c3ccc(OC)cc3)c(=O)n(Cc3ccc(-c4ccccc4-c4noc(O)n4)cc3C)c2s1 [Ex. 116, 6-ethyl-3-[2-(4-methoxyphenyl)-2-oxoethyl]-1-{[3-methyl-2′-(5-oxo-4,5-dihydro-1,2,4-oxadiazol-3-yl)biphenyl-4-yl]methyl}thieno[2,3-d]pyrimidine-2,4(1H,3H)-dione potassium salt]	1.8	–	38
CCc1cc2c(=O)n(CCN3CCOCC3)c(=O)n(Cc3ccc(-c4ccccc4-c4noc(=O)[nH]4)cc3F)c2s1 [Ex. 117, 6-ethyl-1-{[3-fluoro-2′-(5-oxo-4,5-dihydro-1,2,4-oxadiazol-3-yl)biphenyl-4-yl]methyl}-3-(2-morpholin-4-ylethyl)thieno[2,3-d]pyrimidine-2,4(1H,3H)-dione]	1.8	62	–
COc1ccccc1C(=O)Cn1c(=O)c2cc(CC(F)(F)F)sc2n(Cc2c(F)cc(-c3ccccc3-c3noc(O)n3)cc2F)c1=O [Ex. 127, 1-{[3,5-difluoro-2′-(5-oxo-4,5-dihydro-1,2,4-oxadiazol-3-yl)biphenyl-4-yl]methyl}-3-[2-(2-methoxyphenyl)-2-oxoethyl]-6-(2,2,2-trifluoroethyl)thieno[2,3-d]pyrimidine-2,4(1H,3H)-dione potassium salt]	1.4	–	53
COc1ccc(C(=O)Cn2c(=O)c3cc(C4CC4)sc3n(Cc3c(F)cc(-c4ccccc4-c4noc(O)n4)cc3F)c2=O)cc1 [Ex. 135, 6-cyclopropyl-1-{[3,5-difluoro-2′-(5-oxo-4,5-dihydro-1,2,4-oxadiazol-3-yl)biphenyl-4-yl]methyl}-3-[2-(4-methoxyphenyl)-2-oxoethyl]thieno[2,3-d]pyrimidine-2,4(1H,3H)-dione potassium salt]	1.5	–	71
CCc1cc2c(=O)n(CC(=O)c3nc4ccccc4n3C)c(=O)n(Cc3ccc(-c4ccccc4-c4noc(=O)[nH]4)cc3)c2s1 [Ex. 140, 6-ethyl-3-[2-(1-methyl-1H-benzoimidazol-2-yl)-2-oxoethyl]-1-{[2′-(5-oxo-4,5-dihydro-1,2,4-oxadiazol-3-yl)biphenyl-4-yl]methyl}thieno[2,3-d]pyrimidine-2,4(1H,3H)-dione]	1.7	26	–
CCc1cc2c(=O)n(CC3(C)COC3)c(=O)n(Cc3ccc(-c4ccccc4-c4noc(=O)[nH]4)cc3)c2s1 [Ex. 144, 6-ethyl-3-[(3-methyloxetan-3-yl)methyl]-1-{[2′-(5-oxo-4,5-dihydro-1,2,4-oxadiazol-3-yl)biphenyl-4-yl]methyl}thieno[2,3-d]pyrimidine-2,4(1H,3H)-dione]	1.7	40	–
CCc1cc2c(=O)n(CC3(O)CCOCC3)c(=O)n(Cc3ccc(-c4ccccc4-c4noc(=O)[nH]4)cc3)c2s1 [Ex. 145, 6-ethyl-3-[(4-hydroxytetrahydro-2H-pyran-4-yl)methyl]-1-{[2′-(5-oxo-4,5-dihydro-1,2,4-oxadiazol-3-yl)biphenyl-4-yl]methyl}thieno[2,3-d]pyrimidine-2,4(1H,3H)-dione]	1.7	36	–
CCc1cc2c(=O)n(CC(O)C(C)(C)C)c(=O)n(Cc3ccc(-c4ccccc4-c4noc(=O)[nH]4)cc3)c2s1 (centres unmarked) [Ex. 149, 6-ethyl-3-(2-hydroxy-3,3-dimethylbutyl)-1-{[2′-(5-oxo-4,5-dihydro-1,2,4-oxadiazol-3-yl)biphenyl-4-yl]methyl}thieno[2,3-d]pyrimidine-2,4(1H,3H)-dione]	1.8	50	–

Continued by falling IC50 (AT1 receptor), values first:

IC50 (AT1 receptor) [nM]	activation at 1 µM (PPARγ; [1]) [%]	SMILES	activation at 1 µM (PPARγ) [%]
1.7	28	CCc1cc2c(=O)n(CC(=O)c3ccc(Cl)cc3)c(=O)n(Cc3ccc(-c4ccccc4-c4noc(=O)[nH]4)cc3)c2s1 [Ex. 121, 3-[2-(4-chlorophenyl)-2-oxoethyl]-6-ethyl-1-{[2′-(5-oxo-4,5-dihydro-1,2,4-oxadiazol-3-yl)biphenyl-4-yl]methyl}thieno[2,3-d]pyrimidine-2,4(1H,3H)-dione]	–
1.7	50	CCc1cc2c(=O)n(CC(=O)C34CC5CC(CC(C5)C3)C4)c(=O)n(Cc3ccc(-c4ccccc4-c4noc(=O)[nH]4)cc3)c2s1 [Ex. 132, 3-[2-(1-adamantyl)-2-oxoethyl]-6-ethyl-1-{[2′-(5-oxo-4,5-dihydro-1,2,4-oxadiazol-3-yl)biphenyl-4-yl]methyl}thieno[2,3-d]pyrimidine-2,4(1H,3H)-dione]	–
1.6	61	COc1cc(F)ccc1C(=O)Cn1c(=O)c2cc(C3CC3)sc2n(Cc2ccc(-c3ccccc3-c3noc(=O)[nH]3)cc2F)c1=O [Ex. 129, 6-cyclopropyl-3-[2-(4-fluoro-2-methoxyphenyl)-2-oxoethyl]-1-{[3-fluoro-2′-(5-oxo-4,5-dihydro-1,2,4-oxadiazol-3-yl)biphenyl-4-yl]methyl}thieno[2,3-d]pyrimidine-2,4(1H,3H)-dione]	–
1.6	56	COc1cc(F)ccc1C(=O)Cn1c(=O)c2cc(C3CC3)sc2n(Cc2ccc(-c3ccccc3-c3noc(=O)[nH]3)cc2)c1=O [Ex. 130, 6-cyclopropyl-3-[2-(4-fluoro-2-methoxyphenyl)-2-oxoethyl]-1-{[2′-(5-oxo-4,5-dihydro-1,2,4-oxadiazol-3-yl)biphenyl-4-yl]methyl}thieno[2,3-d]pyrimidine-2,4(1H,3H)-dione]	–
1.5	36	O=C(Cn1c(=O)c2cc(CC(F)(F)F)sc2n(Cc2ccc(-c3ccccc3-c3noc(=O)[nH]3)cc2)c1=O)C1CCCCC1 [Ex. 136, 3-(2-cyclohexyl-2-oxoethyl)-1-{[2′-(5-oxo-4,5-dihydro-1,2,4-oxadiazol-3-yl)biphenyl-4-yl]methyl}-6-(2,2,2-trifluoroethyl)thieno[2,3-d]pyrimidine-2,4(1H,3H)-dione]	–
1.5	38	CCc1cc2c(=O)n(C/C(=N/OC)C(C)(C)C)c(=O)n(Cc3ccc(-c4ccccc4-c4noc(=O)[nH]4)cc3)c2s1 [Ex. 142, 6-ethyl-3-[2-(methoxyimino)-3,3-dimethylbutyl]-1-{[2′-(5-oxo-4,5-dihydro-1,2,4-oxadiazol-3-yl)biphenyl-4-yl]methyl}thieno[2,3-d]pyrimidine-2,4(1H,3H)-dione]	–
1.5	33	CCc1cc2c(=O)n(CC(=O)C(C)(C)COC(C)=O)c(=O)n(Cc3ccc(-c4ccccc4-c4noc(=O)[nH]4)cc3)c2s1 [Ex. 148, 4-[6-ethyl-2,4-dioxo-1-{[2′-(5-oxo-4,5-dihydro-1,2,4-oxadiazol-3-yl)biphenyl-4-yl]methyl}-1,4-dihydrothieno[2,3-d]pyrimidin-3(2H)-yl]-2,2-dimethyl-3-oxobutyl acetate]	–
1.4	45	CC(C)(C)C(O)Cn1c(=O)c2cc(C3CC3)sc2n(Cc2ccc(-c3ccccc3-c3noc(=O)[nH]3)cc2)c1=O (centres unmarked) [Ex. 143, 6-cyclopropyl-3-(2-hydroxy-3,3-dimethylbutyl)-1-{[2′-(5-oxo-4,5-dihydro-1,2,4-oxadiazol-3-yl)biphenyl-4-yl]methyl}thieno[2,3-d]pyrimidine-2,4(1H,3H)-dione]	–
1.2	72	CCc1cc2c(=O)n(CC(=O)C(C)(C)C)c(=O)n(Cc3ccc(-c4ccccc4-c4noc(=O)[nH]4)cc3)c2s1 [Ex. 131, 3-(3,3-dimethyl-2-oxobutyl)-6-ethyl-1-{[2′-(5-oxo-4,5-dihydro-1,2,4-oxadiazol-3-yl)biphenyl-4-yl]methyl}thieno[2,3-d]pyrimidine-2,4(1H,3H)-dione]	–
